# Data published in patent US20230365589A1, “NOVEL AMINE DERIVATIVES” (Sumitomo Pharma Co., Ltd., priority 2020, published 2023).
# Where two headings read alike, the source gives them in different places.
# Legend:
# Format in all cases: biochemical
# [1] = target: T1, DYRK1A (Homo sapiens, UniProt Q13627); assay: Inhibition test on activity of DYRK family, mobility shift assay (MSA): DYRK1A
# T1 construct: purchased Carna Biosciences, Inc. 04-130
# In short: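 Mobility shift assay with recombinant DYRK1A (0.2 ng/μL enzyme solution), FITC-DYRKtide substrate (4 μM in substrate mix), 100 μM ATP in substrate mix, HEPES pH 7.5 buffer with MgCl2; 1 h at room temperature. Phosphorylated vs unphosphorylated peptide peaks quantified; IC50 from regression of inhibition rate against log concentration.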
# [2] = target: T2, DYRK3 (Homo sapiens, UniProt O43781); assay: Inhibition test on activity of DYRK family, mobility shift assay (MSA): DYRK3
# T2 construct: purchased Carna Biosciences, Inc. 04-133
# T2 sequence (O43781 1-568 isoform O43781-2): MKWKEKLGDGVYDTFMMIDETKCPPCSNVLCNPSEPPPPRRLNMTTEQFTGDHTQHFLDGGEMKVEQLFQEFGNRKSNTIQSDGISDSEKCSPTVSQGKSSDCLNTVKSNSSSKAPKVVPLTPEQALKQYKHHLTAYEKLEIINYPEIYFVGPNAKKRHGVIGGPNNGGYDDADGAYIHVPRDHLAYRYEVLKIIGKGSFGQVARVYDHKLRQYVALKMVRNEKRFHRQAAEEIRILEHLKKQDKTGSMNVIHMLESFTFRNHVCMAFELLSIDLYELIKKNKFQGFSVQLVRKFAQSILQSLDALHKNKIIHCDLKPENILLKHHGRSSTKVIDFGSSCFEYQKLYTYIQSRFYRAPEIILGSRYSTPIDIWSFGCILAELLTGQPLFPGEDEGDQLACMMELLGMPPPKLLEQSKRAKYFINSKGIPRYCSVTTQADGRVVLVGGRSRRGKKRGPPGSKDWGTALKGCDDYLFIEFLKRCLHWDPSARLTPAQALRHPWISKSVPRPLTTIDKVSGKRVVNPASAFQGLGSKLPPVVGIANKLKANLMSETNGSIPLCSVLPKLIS
# In short: (§1)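 Mobility-shift readout of FITC-DYRKtide phosphorylation in 20 mM HEPES pH 7.5. The substrate mix held 4 µM peptide, 20 mM MgCl2 and ATP at 100 (1A), 200 (1B), 40 (2) or 20 µM (3). Reaction 1 h at room temperature; IC50 from regression of P/(P+S)-based inhibition vs log concentration.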
# [3] = target: T3, DYRK2 (Homo sapiens, UniProt Q92630); assay: Inhibition test on activity of DYRK family, mobility shift assay (MSA): DYRK2
# T3 construct: purchased Carna Biosciences, Inc. 04-132
# T3 sequence (Q92630 74-601 limits assumed): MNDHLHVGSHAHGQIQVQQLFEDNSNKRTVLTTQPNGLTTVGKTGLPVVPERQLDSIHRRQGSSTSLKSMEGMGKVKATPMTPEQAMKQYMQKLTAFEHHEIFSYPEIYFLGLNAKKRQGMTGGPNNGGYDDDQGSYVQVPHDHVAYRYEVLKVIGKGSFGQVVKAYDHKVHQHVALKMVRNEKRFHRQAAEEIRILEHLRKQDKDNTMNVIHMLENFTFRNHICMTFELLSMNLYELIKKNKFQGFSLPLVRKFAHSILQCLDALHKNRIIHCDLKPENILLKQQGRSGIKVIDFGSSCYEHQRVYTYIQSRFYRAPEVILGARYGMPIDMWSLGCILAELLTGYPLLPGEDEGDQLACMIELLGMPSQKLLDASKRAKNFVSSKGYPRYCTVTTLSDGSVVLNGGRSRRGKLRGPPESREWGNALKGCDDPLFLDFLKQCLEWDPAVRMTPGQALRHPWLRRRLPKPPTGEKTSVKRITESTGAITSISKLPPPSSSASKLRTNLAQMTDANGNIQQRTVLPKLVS
# In short: as §1
# [4] = read-out: Inhibitory activity DYRK 1A
# [5] = read-out: Inhibitory activity DYRK 3
# [6] = read-out: Inhibitory activity DYRK 2
# [7] = MSA, FITC-labeled DYRKtide peptide, ATP 100 μM, read-out: Inhibitory activity DYRK 1A (IC50 class)
# [8] = MSA, FITC-labeled DYRKtide peptide, ATP 20 μM, read-out: Inhibitory activity DYRK 3 (IC50 class)
# [9] = MSA, FITC-labeled DYRKtide peptide, ATP 40 μM, read-out: Inhibitory activity DYRK 2 (IC50 class)
"IC50 [1, 4] [nM]","IC50 [2, 5] [nM]","IC50 [3, 6] [nM]","IC50 [1, 7] [nM]","IC50 [2, 8] [nM]","IC50 [3, 9] [nM]",SMILES
10 to 100,≥ 1000,≥ 1000,,,,"C[C@@H]1NC(=O)N(c2nc3c4c(ccc3s2)OCC4)[C@@H]1CN1CC(F)C1 [Example 118, (4S,5R)-1-(7,8-dihydrofuro[3,2-e][1,3]benzothiazol-2-yl)-5-[(3-fluoroazetidin-1-yl)methyl]-4-methylimidazolidin-2-one]"
,,,< 10,100 to 1000,100 to 1000,"COC[C@@H]1[C@H](C)NC(=O)N1c1nc2c3c(ccc2s1)OCC3 [Example 44, (4S,5S)-1-(7,8-dihydrofuro[3,2-e][1,3]benzothiazol-2-yl)-5-(methoxymethyl)-4-methylimidazolidin-2-one]"
,,,< 10,10 to 100,10 to 100,O=C1C[C@@H]2[C@H](CO1)NC(=O)N2c1nc2c3c(ccc2s1)OCC3 [Example 152]
,,,100 to 1000,100 to 1000,≥ 1000,O=C1N[C@H]2CCNC3(CC3)[C@H]2N1c1nc2c3c(ccc2s1)OCC3 [Example 47]
10 to 100,100 to 1000,100 to 1000,,,,O=C1N[C@@H]2CCOC[C@H]2N1c1nc2c3c(ccc2s1)OCC3 [Example 125]
,,,10 to 100,100 to 1000,100 to 1000,O=C1N[C@@H]2[C@@H](CCNC23CC3)N1c1nc2c3c(ccc2s1)OCC3 [Example 46]
,,,10 to 100,≥ 1000,≥ 1000,O=C1NC2CCNCC2N1c1nc2c3c(ccc2s1)OCCO3 (stereo not drawn) [Example 29]
,,,100 to 1000,100 to 1000,≥ 1000,CN1C[C@@H]2NC(=O)N(c3nc4c5c(ccc4s3)OCC5)[C@@H]2[C@@H](F)C1 [Example 74]
,,,100 to 1000,≥ 1000,≥ 1000,C[C@H]1C[C@H]2NC(=O)N(c3nc4c5c(ccc4s3)OCC5)[C@H]2CO1 [Example 134]
< 10,100 to 1000,100 to 1000,,,,"C#CCN1CC[C@@H]2NC(=O)N(c3nc4c5c(ccc4s3)OCC5)[C@@H]2C1 (single isomer, unassigned) [Example 114]"
,,,10 to 100,≥ 1000,≥ 1000,"CN1CC[C@@H]2NC(=O)N(c3nc4c5c(ccc4s3)OCO5)[C@@H]2C1 (racemic) [Example 79, rac-(3aR,7aS)-3-(2H-[1,3]dioxolo[4,5-e][1,3]benzothiazol-7-yl)-5-methyloctahydro-2H-imidazo[4,5-c]pyridin-2-one]"
,,,100 to 1000,100 to 1000,≥ 1000,O=C1N[C@H]2CCCNC[C@H]2N1c1nc2c3c(ccc2s1)OCO3 [Example 55]
≥ 1000,≥ 1000,≥ 1000,,,,N#C[C@H]1C[C@H]2NC(=O)N(c3nc4c5c(ccc4s3)OCC5)[C@H]2CO1 [Example 128]
100 to 1000,≥ 1000,≥ 1000,,,,C[C@@H]1[C@@H]2NC(=O)N(c3nc4c5c(ccc4s3)OCC5)[C@@H]2CCN1C [Example 97]
< 10,≥ 1000,≥ 1000,,,,"O=C1N[C@H]2CCN(C3CC3)C[C@H]2N1c1nc2c3c(ccc2s1)OCC3 (single isomer, unassigned) [Example 110]"
100 to 1000,100 to 1000,100 to 1000,,,,C[C@H]1[C@H]2[C@@H](CCN1C)NC(=O)N2c1nc2c3c(ccc2s1)OCC3 [Example 95]
,,,100 to 1000,100 to 1000,≥ 1000,CN1CC[C@@H]2NC(=O)N(c3nc4c5c(ccc4s3)OCC5)[C@@H]2CC1 [Example 67]

"IC50 [1, 4] [nM]","IC50 [2, 5] [nM]","IC50 [3, 6] [nM]","IC50 [1, 7] [nM]","IC50 [2, 8] [nM]","IC50 [3, 9] [nM]",SMILES
,,,10 to 100,≥ 1000,≥ 1000,"CN1CC[C@@H]2NC(=O)N(c3nc4c5c(ccc4s3)OCCO5)[C@@H]2C1 (racemic) [Example 76, rac-(3aR,7aS)-3-(7,8-dihydro[1,4]dioxino[2,3-e][1,3]benzothiazol-2-yl)-5-methyloctahydro-2H-imidazo[4,5-c]pyridin-2-one]"
,,,10 to 100,100 to 1000,100 to 1000,O=C1N[C@H]2CNC[C@H](F)[C@H]2N1c1nc2c3c(ccc2s1)OCC3 [Example 49]
,,,100 to 1000,100 to 1000,≥ 1000,CN1CC(N2CC[C@@H]3NC(=O)N(c4nc5c6c(ccc5s4)OCC6)[C@@H]3C2)C1 [Example 83]
,,,100 to 1000,≥ 1000,≥ 1000,"C[C@H]1NC(=O)N(c2nc3c4c(ccc3s2)OCC4)[C@@H]1CN(C)C [Example 22, (4R,5R)-1-(7,8-dihydrofuro[3,2-e][1,3]benzothiazol-2-yl)-5-[(dimethylamino)methyl]-4-methylimidazolidin-2-one]"
,,,10 to 100,≥ 1000,≥ 1000,CN1C[C@@H](F)[C@@H]2NC(=O)N(c3nc4c5c(ccc4s3)OCC5)[C@@H]2C1 [Example 75]
,,,10 to 100,≥ 1000,≥ 1000,COC(=O)[C@H]1C[C@@H]2[C@H](CO1)NC(=O)N2c1nc2c3c(ccc2s1)OCC3 [Example 141]
,,,10 to 100,10 to 100,100 to 1000,C[C@H]1[C@H]2NC(=O)N(c3nc4c5c(ccc4s3)OCC5)C2CCN1C (stereo partly drawn) [Example 91]
,,,100 to 1000,≥ 1000,≥ 1000,"O=C1N[C@@H]2CCN(C3CC3)C[C@@H]2N1c1nc2c3c(ccc2s1)OCCO3 (single isomer, unassigned) [Example 33]"
10 to 100,≥ 1000,≥ 1000,,,,"O=C1N[C@H]2CCN(CC(F)(F)F)C[C@H]2N1c1nc2c3c(ccc2s1)OCC3 (racemic) [Example 107, rac-(3aR,7aS)-3-(7,8-dihydrofuro[3,2-e][1,3]benzothiazol-2-yl)-5-(2,2,2-trifluoroethyl)octahydro-2H-imidazo[4,5-c]pyridin-2-one]"
,,,10 to 100,100 to 1000,100 to 1000,"O=C1N[C@H]2COCCC[C@H]2N1c1nc2c3c(ccc2s1)OCCO3 [Example 135, (3aR,8aR)-1-(7,8-dihydro[1,4]dioxino[2,3-e][1,3]benzothiazol-2-yl)hexahydro-1H-oxepino[3,4-d]imidazol-2(3H)-one]"
10 to 100,≥ 1000,≥ 1000,,,,O=C1N[C@H]2CN(C3CC3)C[C@H]2N1c1nc2c3c(ccc2s1)OCC3 [Example 101]
,,,10 to 100,100 to 1000,100 to 1000,CN1CCC[C@@H]2[C@H](C1)NC(=O)N2c1nc2c3c(ccc2s1)OCC3 [Example 18]
,,,10 to 100,≥ 1000,≥ 1000,C[C@@H]1NC(=O)N(c2nc3c4c(ccc3s2)OCC4)[C@@H]1CN(C)C [Example 25]
,,,100 to 1000,≥ 1000,100 to 1000,O=C1N[C@H]2CN(C3CC3)CC[C@H]2N1c1nc2c3c(ccc2s1)OCO3 [Example 87]
,,,10 to 100,≥ 1000,≥ 1000,"O=C1N[C@H]2CCN(C3COC3)C[C@H]2N1c1nc2c3c(ccc2s1)OCCO3 (racemic) [Example 80, rac-(3aR,7aS)-3-(7,8-dihydro[1,4]dioxino[2,3-e][1,3]benzothiazol-2-yl)-5-(oxetan-3-yl)octahydro-2H-imidazo[4,5-c]pyridin-2-one]"
,,,100 to 1000,≥ 1000,≥ 1000,O=C1N[C@@H]2COC[C@@H]2N1c1nc2c3c(ccc2s1)OCC3 [Example 66]
